Laboratory results as given in ChEMBL document CHEMBL3232981, “Isolation of 6-deoxytetrodotoxin from the pufferfish, Takifugu pardalis, and a comparison of the effects of the C-6 and C-11 hydroxy groups of tetrodotoxin on its activity” (J Nat Prod, 2014).

Tests used:
[1] = system: Neuro-2a; experiment: (§1) Inhibition of Nav in mouse Neuro-2a cells assessed as inhibition of ouabain and veratridine-induced cytotoxicity after 24 hrs by WST-8 assay; type: cell-based
[2] = as §1; type: cell-based

Compound	inhibition [1]	EC50 [2]
C[C@]1(O)[C@@H]2O[C@]3(O)O[C@H]1[C@@H](O)[C@@]1(NC(=N)N[C@H](O)[C@@H]21)[C@@H]3O	Dose-dependent effect	130 nM
C[C@H]1[C@H]2O[C@@]3(O)O[C@@H]1[C@@H]1[C@@H](O)NC(=N)N[C@]1([C@@H]2O)[C@@H]3O	Dose-dependent effect	400 nM
N=C1N[C@H](O)[C@H]2[C@H]3O[C@]4(O)O[C@H]([C@@H]3CO)[C@@H](O)[C@@]2(N1)[C@@H]4O	Dose-dependent effect	6.5 nM
NC1=N[C@H](O)[C@H]2[C@H]3O[C@]4(O)O[C@@H]([C@@H](O)[C@@]2(N1)[C@@H]4O)[C@]3(O)CO [TETRODOTOXIN]	Dose-dependent effect	2.1 nM
